Patent US10315990B2, “Isothiocyanate compounds and isothiocyanate XPO1 protein inhibitor drugs thereof” (DRIVINGFORCE THERAPEUTICS Co., Ltd., priority 2015, dated 2019)

Columns and labels:
[1] = tested on: SK-OV3 (high metastasis type ovarian cancer cell line); assay: Ovarian cancer intraperitoneal metastasis animal model; format: in vivo, nudemice (BALB/c-nu/nu); settings: Mus musculus, SK-OV-3, ip
786-O = assay: Inhibitory activity for other high metastasis type cancer cell line (MTT or CCK-8); format: cell-based; settings: Homo sapiens, 786-0; 786-O, 72 hours; read-out: IC50
CaSki = assay: as above; format: cell-based; settings: Homo sapiens, Ca-Ski; CaSki, 72 hours; read-out: IC50
Raji = assay: Inhibitory activity for high metastasis type lymphoma cell line (MTT or CCK-8); format: cell-based; settings: Homo sapiens, 72 hours, read-out: IC50
Experimental: (§1) Jeko-1, Raji and U2932 are three typical high metastasis type lymphoma cell lines. The lymphoma cell line was inoculated on 96-well cell culture plate in an amount of 6000 cells per well and cultured at 37° C. for 24 hours, and then treated solely with the compound added therein and cultured. Seventy-two hours later, MTT or CCK-8 method was used to detect the inhibitory activity of the compound for the two high metastasis type lymphoma cell lines.

Jeko-1 = assay: as above; format: cell-based; settings: Homo sapiens; Jeko-1, 72 hours; read-out: IC50
Experimental: as §1

U2932 = assay: as above; format: cell-based; settings: Homo sapiens; U2932, 72 hours; read-out: IC50
Experimental: as §1

HO-8910 = assay: Inhibitory activity for high metastasis type ovarian cancer cell line (MTT or CCK-8); format: cell-based; settings: HO-8910, 72 hours; read-out: IC50
Experimental: (§2) The two cell lines were inoculated on 96-well cell culture plate in an amount of 6000 cells per well and cultured at 37° C. for 24 hours, and then treated solely with the representative compound added therein and cultured. Seventy-two hours later, MTT or CCK-8 method was used to detect the inhibitory activity of the representative compound for the high metastasis type ovarian cancer cell lines.

A2780 = assay: as above; format: cell-based; settings: Homo sapiens; A2780, 72 hours; read-out: IC50
Experimental: as §2

SW620 = assay: Inhibitory activity for high metastasis type colon cancer cell line (MTT or CCK-8); format: cell-based; settings: Homo sapiens, SW-620; SW620, 72 hours; read-out: IC50
HCT116 = assay: as above; format: cell-based; settings: Homo sapiens, HCT-116; HCT116, 72 hours; read-out: IC50
Saos-2 = assay: Inhibitory activity for other high metastasis type cancer cell line (MTT or CCK-8); format: cell-based; settings: Homo sapiens; Saos-2, 72 hours; read-out: IC50
XPO1 protein = target: T1, XPO1 protein (Homo sapiens, UniProt O14980); assay: Inhibitory activity for XPO1 protein (NES-GFP nuclear export, laser confocal microscope); format: cell-based; settings: NES-GFP nuclear export, cells treated for 2 hours
T1 construct: Sixteen hours later, NES-GFP plasmid was transfected with liposome; endogenous in cells

TNF-α = assay: Serum TNF-α level of IBD animal model (ELISA); format: in vivo, SD rats; settings: 80 mg/kg, three days after making the TNBS model
Excerpt: (§3) Inflammatory bowel disease is an autoimmune disease. […] The therapeutic effect of the representative compound for the immune system disease or inflammation can be assessed by detecting change in levels of some important cytokines such as TNF-α and IL-6 at downstream of the signal path.

IL-6 = assay: Serum IL-6 level of IBD animal model (ELISA); format: in vivo, SD rats; settings: 80 mg/kg, three days after making the TNBS model
Excerpt: as §3

HMLE-Snail cell line = assay: Formation of HMLE-Snail cell line spheroids; format: cell-based; settings: 10 μg/ml, treated for 24 hours; control = 100; read-out: Colony (%): cell colony number of drug-treated group/cell colony number of control group × 100%

T1 sequence (O14980 whole entry, species assumed): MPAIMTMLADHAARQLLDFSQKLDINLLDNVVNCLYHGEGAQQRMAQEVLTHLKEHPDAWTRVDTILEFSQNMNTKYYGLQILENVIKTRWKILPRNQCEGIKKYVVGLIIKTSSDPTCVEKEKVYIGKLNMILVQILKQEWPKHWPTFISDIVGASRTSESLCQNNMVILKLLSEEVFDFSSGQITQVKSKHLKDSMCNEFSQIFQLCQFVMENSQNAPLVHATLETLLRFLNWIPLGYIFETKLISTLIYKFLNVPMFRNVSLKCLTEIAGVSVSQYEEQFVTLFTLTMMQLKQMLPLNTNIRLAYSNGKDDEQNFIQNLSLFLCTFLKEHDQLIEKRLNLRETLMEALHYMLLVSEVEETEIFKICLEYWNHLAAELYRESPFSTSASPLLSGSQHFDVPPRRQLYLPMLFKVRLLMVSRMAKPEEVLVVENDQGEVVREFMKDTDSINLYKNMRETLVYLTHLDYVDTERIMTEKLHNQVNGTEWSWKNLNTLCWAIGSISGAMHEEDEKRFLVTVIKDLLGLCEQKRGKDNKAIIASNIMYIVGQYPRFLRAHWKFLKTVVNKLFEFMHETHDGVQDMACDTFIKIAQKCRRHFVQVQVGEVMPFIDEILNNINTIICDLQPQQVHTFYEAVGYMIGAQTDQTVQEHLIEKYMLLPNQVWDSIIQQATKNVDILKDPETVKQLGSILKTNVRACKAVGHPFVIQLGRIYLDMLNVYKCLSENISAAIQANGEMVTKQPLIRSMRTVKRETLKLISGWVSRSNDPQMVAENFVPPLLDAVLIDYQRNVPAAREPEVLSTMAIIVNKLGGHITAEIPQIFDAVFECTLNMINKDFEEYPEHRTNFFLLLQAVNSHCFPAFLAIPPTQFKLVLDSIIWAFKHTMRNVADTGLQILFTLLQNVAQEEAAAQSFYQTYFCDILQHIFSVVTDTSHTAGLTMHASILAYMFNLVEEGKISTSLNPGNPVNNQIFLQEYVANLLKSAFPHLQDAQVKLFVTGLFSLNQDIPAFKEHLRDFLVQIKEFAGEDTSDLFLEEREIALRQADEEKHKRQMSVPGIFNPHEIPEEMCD

C[S+]([O-])CCCCN=C=S (centres unmarked) [SFN, sulforaphane, reference compound]
response vs control in vivo at 80 mg/kg ([1]; 504 h, 80 mg/kg intraperitoneal injection once a day for 3 weeks, read-out: T/C (%)): 95%
mortality at 80 mg/kg ([1]; 720 h, read-out: Mortality (within 30 days)): 16.7%
IC50 (786-O): 10.2 µM
IC50 (CaSki): 11 µM
IC50 (Raji): 11 µM
IC50 (Jeko-1): 10.1 µM
IC50 (U2932): 13.4 µM
IC50 (HO-8910): 21.3 µM
IC50 (A2780): 23.2 µM
IC50 (SW620): 15.1 µM
IC50 (HCT116): 13.2 µM
IC50 (Saos-2): 14.5 µM
Activity (μM): inhibitory activity for XPO1 protein (full inhibitory concentration) (XPO1 protein): 35 µM
Serum TNF-α level, Animal-1 (TNF-α; Animal-1): 2.1 ng/mL
Serum TNF-α level, Animal-2 (TNF-α; Animal-2): 1.8 ng/mL
Serum TNF-α level, Animal-3 (TNF-α; Animal-3): 2.1 ng/mL
Serum IL-6 level, Animal-1 (IL-6; Animal-1): 2.5 ng/mL
Serum IL-6 level, Animal-2 (IL-6; Animal-2): 2.4 ng/mL
Serum IL-6 level, Animal-3 (IL-6; Animal-3): 2.3 ng/mL
activity at 10 µg/mL (HMLE-Snail cell line): 90%
